Where two headings read alike, the source gives them in different places.

Consider 3 molecules from paper PMC11082923 (Journal of Agricultural and Food Chemistry, 2024).

Test [1] addresses T1, TAS2R16 (Homo sapiens, UniProt Q9NYV7).
T1 sequence (Q9NYV7 1-291): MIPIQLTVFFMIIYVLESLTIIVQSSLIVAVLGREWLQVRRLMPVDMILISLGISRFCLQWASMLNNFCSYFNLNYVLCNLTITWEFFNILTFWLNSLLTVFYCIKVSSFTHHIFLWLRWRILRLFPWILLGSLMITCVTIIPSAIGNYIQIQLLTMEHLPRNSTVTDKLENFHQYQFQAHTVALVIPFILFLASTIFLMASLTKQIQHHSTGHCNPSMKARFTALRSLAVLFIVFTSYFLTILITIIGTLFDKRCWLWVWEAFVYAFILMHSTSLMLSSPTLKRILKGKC
Briefly: Fluo4-AM calcium imaging. Type of test: cell-based. As to conditions: agonist; C1 buffer with or without NaCl ([…] NMDG), pH […].

For test [2], the target named is T1, TAS2R16. Briefly: Fluo4-AM calcium imaging. Type of test: cell-based.

On to `O=Cc1ccccc1O[C@@H]1O[C@H](CO)[C@@H](O)[C@H](O)[C@H]1O` [Helicin], for which, at TAS2R16 [1], the EC50 result is “signal saturation of TAS2R16 was achieved with phenyl-βD-glucopyranoside and helicin”.
Consider `OCc1ccccc1O[C@@H]1O[C@H](CO)[C@@H](O)[C@H](O)[C@H]1O` [D-salicin], for which, on TAS2R16 [2], the EC50 was 1280 ± 180 µM.
Take `OC[C@H]1O[C@@H](Oc2ccccc2)[C@H](O)[C@@H](O)[C@@H]1O` [phenyl-βD-glucopyranoside]: the EC50 entry at TAS2R16 [1] was “signal saturation of TAS2R16 was achieved with phenyl-βD-glucopyranoside and helicin”.

For orientation: EC50 means the concentration giving half of the maximal effect.
